Laboratory results as given in the supplement of paper PMC4862054.

tested on: MDA-MB-468; test: normalised response (% of control), CellTiter-Glo; higher = more viable cells (100 = DMSO, 0 = benzethonium chloride kill control); settings: incubation time: 72 h
In short: (§1)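 A 20 µl suspension of breast cancer cells was seeded into each well of 384-well plates containing compound at 5 concentrations in 10-fold steps over a compound-specific 10,000-fold range. After 72 h incubation, CellTox Green fluorescence (485/520 nm) was read first, and CellTiter-Glo luminescence was read after 10 min at room temperature. Each plate was normalised against 0.1 % DMSO (100) and a positive kill control (0), and each value is the normalised signal at one concentration.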

SMILES | normalised response [%]
CC(C)C(=O)Nc1ccc([N+](=O)[O-])c(C(F)(F)F)c1 [Flutamide] (10 nM) | 96
COc1cc2c(Oc3ccc(NC(=O)C4(C(=O)Nc5ccc(F)cc5)CC4)cc3F)ccnc2cc1OCCCN1CCOCC1 [Foretinib] (1 nM) | 99.4
COc1cc(Nc2ncc(F)c(Nc3ccc4c(n3)N(COP(=O)(O)O)C(=O)C(C)(C)O4)n2)cc(OC)c1OC [Fostamatinib] (0.25 nM) | 97.4
COc1cc(Nc2ncc(F)c(Nc3ccc4c(n3)N(COP(=O)(O)O)C(=O)C(C)(C)O4)n2)cc(OC)c1OC [Fostamatinib] (2.5 nM) | 96.7
CC(C)NC[C@@H](C(=O)N1CCN(c2ncnc3c2[C@H](C)C[C@H]3O)CC1)c1ccc(Cl)cc1 [GDC-0068] (1 nM) | 94.1
CCCc1cc(C)[nH]c(=O)c1CNC(=O)c1cc(-c2ccnc(N3CCN(C)CC3)c2)cc2c1cnn2C(C)C [GSK343] (1 nM) | 89
CCCc1cc(C)[nH]c(=O)c1CNC(=O)c1cc(-c2ccnc(N3CCN(C)CC3)c2)cc2c1cnn2C(C)C [GSK343] (10 nM) | 87.4
NC(=O)NO [Hydroxyurea] (100 nM) | 101
COc1cc2c(cc1-c1c(C)noc1C)ncc1[nH]c(=O)n([C@H](C)c3ccccn3)c12 [I-BET151] (1 nM) | 95.9
CC(C)n1nc(-c2ccc3oc(N)nc3c2)c2c(N)ncnc21 [INK128] (0.1 nM) | 93.3
CC(C)n1nc(-c2ccc3oc(N)nc3c2)c2c(N)ncnc21 [INK128] (1 nM) | 93.6
O=NN(CCCl)C(=O)NC1CCCCC1 [Lomustine] (10 nM) | 92.5
O=C(O)CC[C@H]1CC[C@@](c2cc(F)ccc2F)(S(=O)(=O)c2ccc(Cl)cc2)CC1 [MK-0752] (1 nM) | 98.5
NC1(c2ccc(-c3nc4ccn5c(=O)[nH]nc5c4cc3-c3ccccc3)cc2)CCC1 [MK-2206] (1 nM) | 101
NC(=O)c1cccc2cn(-c3ccc([C@@H]4CCCNC4)cc3)nc12 [MK-4827] (10 nM) | 98.6
N[C@@H](Cc1ccc(N(CCCl)CCCl)cc1)C(=O)O [Melphalan] (1.25 nM) | 91.7
N[C@@H](Cc1ccc(N(CCCl)CCCl)cc1)C(=O)O [Melphalan] (12.5 nM) | 95.4
O=C(c1cc(Cc2n[nH]c(=O)c3ccccc23)ccc1F)N1CCN(C(=O)C2CC2)CC1 [Olaparib] (10 nM) | 101

tested on: DU-4475; test: as above; settings: incubation time: 72 h
In short: as §1

SMILES | normalised response [%]
Cc1c(C(=O)Nc2ccc(N3C[C@@H](C)O[C@@H](C)C3)nc2)cccc1-c1ccc(OC(F)(F)F)cc1 [Erismodegib] (1 nM) | 97.5
Cc1c(C(=O)Nc2ccc(N3C[C@@H](C)O[C@@H](C)C3)nc2)cccc1-c1ccc(OC(F)(F)F)cc1 [Erismodegib] (10 nM) | 101
CC(C)C(=O)Nc1ccc([N+](=O)[O-])c(C(F)(F)F)c1 [Flutamide] (10 nM) | 102
COc1cc2c(Oc3ccc(NC(=O)C4(C(=O)Nc5ccc(F)cc5)CC4)cc3F)ccnc2cc1OCCCN1CCOCC1 [Foretinib] (1 nM) | 100
COc1cc(Nc2ncc(F)c(Nc3ccc4c(n3)N(COP(=O)(O)O)C(=O)C(C)(C)O4)n2)cc(OC)c1OC [Fostamatinib] (0.25 nM) | 96.2
COc1cc(Nc2ncc(F)c(Nc3ccc4c(n3)N(COP(=O)(O)O)C(=O)C(C)(C)O4)n2)cc(OC)c1OC [Fostamatinib] (2.5 nM) | 93.8
CC(C)NC[C@@H](C(=O)N1CCN(c2ncnc3c2[C@H](C)C[C@H]3O)CC1)c1ccc(Cl)cc1 [GDC-0068] (1 nM) | 99.9
CCCc1cc(C)[nH]c(=O)c1CNC(=O)c1cc(-c2ccnc(N3CCN(C)CC3)c2)cc2c1cnn2C(C)C [GSK343] (1 nM) | 92.7
CCCc1cc(C)[nH]c(=O)c1CNC(=O)c1cc(-c2ccnc(N3CCN(C)CC3)c2)cc2c1cnn2C(C)C [GSK343] (10 nM) | 94
NC(=O)NO [Hydroxyurea] (100 nM) | 101
COc1cc2c(cc1-c1c(C)noc1C)ncc1[nH]c(=O)n([C@H](C)c3ccccn3)c12 [I-BET151] (1 nM) | 103
CC(C)n1nc(-c2ccc3oc(N)nc3c2)c2c(N)ncnc21 [INK128] (0.1 nM) | 90.2
CC(C)n1nc(-c2ccc3oc(N)nc3c2)c2c(N)ncnc21 [INK128] (1 nM) | 94.1
O=NN(CCCl)C(=O)NC1CCCCC1 [Lomustine] (10 nM) | 102
O=C(O)CC[C@H]1CC[C@@](c2cc(F)ccc2F)(S(=O)(=O)c2ccc(Cl)cc2)CC1 [MK-0752] (1 nM) | 104
NC1(c2ccc(-c3nc4ccn5c(=O)[nH]nc5c4cc3-c3ccccc3)cc2)CCC1 [MK-2206] (1 nM) | 104
NC(=O)c1cccc2cn(-c3ccc([C@@H]4CCCNC4)cc3)nc12 [MK-4827] (10 nM) | 104
N[C@@H](Cc1ccc(N(CCCl)CCCl)cc1)C(=O)O [Melphalan] (1.25 nM) | 95.5
N[C@@H](Cc1ccc(N(CCCl)CCCl)cc1)C(=O)O [Melphalan] (12.5 nM) | 99.3
O=C(c1cc(Cc2n[nH]c(=O)c3ccccc23)ccc1F)N1CCN(C(=O)C2CC2)CC1 [Olaparib] (10 nM) | 102

tested on: MFM-223; test: as above; settings: incubation time: 72 h
In short: as §1

SMILES | normalised response [%]
Cc1c(C(=O)Nc2ccc(N3C[C@@H](C)O[C@@H](C)C3)nc2)cccc1-c1ccc(OC(F)(F)F)cc1 [Erismodegib] (1 nM) | 96.7
Cc1c(C(=O)Nc2ccc(N3C[C@@H](C)O[C@@H](C)C3)nc2)cccc1-c1ccc(OC(F)(F)F)cc1 [Erismodegib] (10 nM) | 91.9
CC(C)C(=O)Nc1ccc([N+](=O)[O-])c(C(F)(F)F)c1 [Flutamide] (10 nM) | 99.6
COc1cc2c(Oc3ccc(NC(=O)C4(C(=O)Nc5ccc(F)cc5)CC4)cc3F)ccnc2cc1OCCCN1CCOCC1 [Foretinib] (1 nM) | 102
COc1cc(Nc2ncc(F)c(Nc3ccc4c(n3)N(COP(=O)(O)O)C(=O)C(C)(C)O4)n2)cc(OC)c1OC [Fostamatinib] (0.25 nM) | 94.9
COc1cc(Nc2ncc(F)c(Nc3ccc4c(n3)N(COP(=O)(O)O)C(=O)C(C)(C)O4)n2)cc(OC)c1OC [Fostamatinib] (2.5 nM) | 98.8
CC(C)NC[C@@H](C(=O)N1CCN(c2ncnc3c2[C@H](C)C[C@H]3O)CC1)c1ccc(Cl)cc1 [GDC-0068] (1 nM) | 98.9
CCCc1cc(C)[nH]c(=O)c1CNC(=O)c1cc(-c2ccnc(N3CCN(C)CC3)c2)cc2c1cnn2C(C)C [GSK343] (1 nM) | 94.7
CCCc1cc(C)[nH]c(=O)c1CNC(=O)c1cc(-c2ccnc(N3CCN(C)CC3)c2)cc2c1cnn2C(C)C [GSK343] (10 nM) | 93.3
NC(=O)NO [Hydroxyurea] (100 nM) | 108
